Laboratory results from patent US20060241177A1, “Novel compounds, pharmaceutical compositions containing same, and methods of use for same” (priority 2002, published 2006).

Columns and labels:
[1] = Weight loss screen in Balb/C mice; format: in vivo
Procedure: Weight Loss Screen for Novel FAS Inhibitors
Balb/C mice (Jackson Labs) are utilized for the initial weight loss screening. Animals are housed in temperature and 12 hour day/night cycle rooms and fed mouse chow and water ad lib. Three mice are utilized for each compound tested with vehicle controls in triplicate per experiment. For the experiments, mice are housed separately for each compound tested three mice to a cage. Compounds are diluted in DMSO at 10 mg/ml when given at a dose of 30 mg/kg, and 30 mg/ml when given at a dose of 60 mg/kg, and mice are injected intraperitoneally with 60 mg/kg in approximately 100 μl of DMSO or with vehicle alone. Mice are observed and weighed daily; average weights and standard errors are computed with Excel (Microsoft). The experiment continues until treated animals reach their pretreatment weights. Select compounds are tested in animals housed in metabolic cages.
Dosing of animals are identical to the screening experiments with three animals to a single metabolic cage. Animal weights, water and food consumption, and urine and feces production are measured daily. Three lean Balb/C mice (Harlan) maintained on mouse chow, are treated with compounds at doses indicated on day 0 or with vehicle (DMSO) control of equal volume. Compound 6 was solubilized in 40 μl DMSO while Compound 8 was solubilized in 60 μl DMSO. All were injected intraperitoneally. Weights were measured on days indicated. Error bars represent standard error of the mean.

[2] = target: T1, Carnitine Palmitoyltransferase-1 (CPT-1) (Homo sapiens, UniProt P50416); assay: Carnitine palmitoyltransferase-1 (CPT-1) assay in permeabilized MCF-7 cells; format: cell-based; details: MCF at 10 ug.ml
T1 construct: This assay uses permeabilized cells to measure the transfer of [methyl-^14C]L-carnitine; endogenous in cells; host or cells: MCF-7 cells, digitonin-permeabilized
T1 sequence (P50416 1-773): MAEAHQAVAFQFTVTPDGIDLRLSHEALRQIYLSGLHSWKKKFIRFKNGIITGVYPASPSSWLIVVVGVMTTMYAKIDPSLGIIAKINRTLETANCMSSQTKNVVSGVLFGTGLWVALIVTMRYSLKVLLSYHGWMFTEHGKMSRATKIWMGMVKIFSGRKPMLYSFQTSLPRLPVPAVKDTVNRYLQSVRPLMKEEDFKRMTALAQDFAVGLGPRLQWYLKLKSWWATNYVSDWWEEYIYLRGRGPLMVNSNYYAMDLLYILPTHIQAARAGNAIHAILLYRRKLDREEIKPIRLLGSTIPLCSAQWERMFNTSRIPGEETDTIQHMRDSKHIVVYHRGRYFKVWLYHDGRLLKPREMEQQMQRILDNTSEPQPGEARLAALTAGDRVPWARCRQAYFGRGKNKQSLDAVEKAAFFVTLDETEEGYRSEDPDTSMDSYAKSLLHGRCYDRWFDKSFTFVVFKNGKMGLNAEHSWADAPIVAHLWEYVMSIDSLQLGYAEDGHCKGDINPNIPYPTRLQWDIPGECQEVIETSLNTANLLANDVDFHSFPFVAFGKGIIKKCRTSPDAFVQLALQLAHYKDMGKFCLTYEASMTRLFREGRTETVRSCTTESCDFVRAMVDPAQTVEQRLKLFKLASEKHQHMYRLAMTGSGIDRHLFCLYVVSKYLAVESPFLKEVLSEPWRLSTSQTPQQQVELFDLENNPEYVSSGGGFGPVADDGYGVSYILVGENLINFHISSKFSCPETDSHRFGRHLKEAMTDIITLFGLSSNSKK
Procedure: Carnitine Palmitoyltransferase-1 (CPT-1) Assay
CPT-1 catalyzes the ATP dependent transfer of long-chain fatty acids from acyl-CoA to acyl-carnitine that is inhibited by malonyl-CoA. As CPT-1 requires the mitochondrial membrane for activity, enzyme activity is measured in permeabilized cells or mitochondria This assay uses permeabilized cells to measure the transfer of [methyl-^14C]L-carnitine to the organically soluble acyl-carnitine deriviative.
MCF-7 cells are plated in DMEM with 10% fetal bovine serum at 10^6 cells in 24-well plates in triplicate for controls, drugs, and malonyl-CoA. Two hours before commencing the assay, drugs are added at the indicated concentrations made from stock solutions at 10 mg/ml in DMSO, vehicle controls consist of DMSO without drug. Since malonyl-CoA cannot enter intact cells, it is only added in the assay buffer to cells that have not been preincubated with drugs. Following overnight incubation at 37° C., the medium is removed and replaced with 700 μl of assay buffer consisting of: 50 mM imidazole, 70 mM KCl, 80 mM sucrose, 1 mM EGTA, 2 mM MgCl2, 1 mM DTT, 1 mM KCN, 1 mM ATP, 0.1% fatty acid free bovine serum albumin, 70 μM palmitoyl-CoA, 0.25 μCi [methyl-^14C]L-carnitine, 40 μg digitonin with drug, DMSO vehicle control, or 20 μM malonyl-CoA. […] The butanol phase is counted by liquid scintillation and represents the acylcarnitine derivative.

[3] = 30 mg/kg i.p., day 1, three Balb/C mice per compound

## C=CCNC(=O)[C@@H]1C(=C)C(=O)O[C@H]1CCCCCCCC (racemic)
[1]; 60 mg/kg i.p., day 3, three Balb/C mice per compound
  Deaths in weight loss screen: 3 of 3 dead
[2]
  CPT I Stim: 400% of control/MCF

## C=CCNC(=O)[C@@H]1C(=C)C(=O)O[C@H]1CCCCCC (racemic)
[1]; [3]
  Deaths in weight loss screen: 1 of 3 dead

## C=CCNC(=O)[C@@H]1C(=C)C(=O)O[C@H]1CCCC (racemic)
[1]; 30 mg/kg i.p., day 2, three Balb/C mice per compound
  Deaths in weight loss screen: 3 of 3 dead

## C=C1C(=O)O[C@@H](CCCCCCCC)[C@@H]1C(=O)NCC(=O)OC (racemic)
[1]; [3]
  Deaths in weight loss screen: 3 of 3 dead

## C=C1C(=O)O[C@@H](CCCCCCCC)[C@@H]1C(=O)NCC(=O)O (racemic)
[1]; 30 mg/kg i.p., day 6, three Balb/C mice per compound
  Deaths in weight loss screen: 1 death
